From patent US10363263B2, “Anti-aging compositions and methods for using same” (Prescient Pharma LLC, priority 2015, dated 2019)

What was measured:
[1] = test system: wild-type N2 Bristol strain of C. elegans; assay: C. elegans longevity study (Example 4); assay type: in vivo; settings: for longevity effect: monotherapy; for Restricted mean Days (survival): control 15.53
Description: In this fourth Example, the effect of treatment with lithium and Glycyrrhizic acid separately, and as a fixed combination, was further evaluated on the wild-type N2 Bristol strain of C. elegans. Worm stocks were maintained on nematode growth medium (NGM) dishes containing 10 μg/mL cholesterol (Cat. No. C8667; Sigma-Aldrich, Saint Louis, Mo., USA). Dishes were seeded with OP50 Escherichia coli as a food source. Twelve polystyrene petri dishes (35 mm diameter) were prepared by filling with NGM agar containing […] cholesterol, and 25 μM 5-Fluoro-2′-deoxyuridine to suppress reproduction (FUDR; Cat. No. F0503; Sigma-Aldrich, Saint Louis, Mo., USA). The dishes were seeded with OP50 Escherichia coli as a food source. Duplicate dishes were used for each group. The treatment drug was dissolved in deionized water, and added to the dishes for the groups as explained below: […] Group#5: Glycyrrhizic acid in concentration of 0.25 mM Group#6: untreated (control) NGM-agar treatment plates containing cholesterol (10 μg/mL) and 25 μM 5-Fluoro-2′-deoxyuridine (FUDR; Cat. No. F0503; Sigma-Aldrich, Saint Louis, Mo., USA) to suppress reproduction. […] The survival data for the various groups are also depicted in FIG. 17.

[2] = test system: normal human colon fibroblast cell line CCD 841 CoN (CRL-1790, ATCC); assay: Senescence beta-galactosidase staining of aged normal human colon fibroblasts (Examples 1 and 2); assay type: cell-based; settings: 48 hours; for effect on beta-galactosidase staining in comparison with non-treated controls: monotherapy, 0.15 μM lithium carbonate or 0.25 mM glycyrrhizic acid; for visible positive beta-galactosidase staining (FIGS. 1-4): visual, light microscope 100×, 0.15 μM lithium carbonate and/or 0.25 mM glycyrrhizic acid
Description: Aging-associated beta-galactosidase is widely used as a biomarker of senescence. Here we investigated senescence-associated-beta-galactosidase activity of human colon fibroblast cells by visual assessment.
In this Example, the effect of treatment with lithium and glycyrrhizic acid separately, and as a fixed combination, was evaluated on normal human colon fibroblast cell line CCD 841 CoN (CRL-1790, ATCC).
Group 4 (flasks 10-12, control), the medium was changed to fresh compete EMEM medium without drugs as controls.
FIGS. 1-4 show pictures of the staining results for each of the groups, respectively.
Digital pictures showing the staining results for each of the 12 flasks were then independently examined and scored for percentage of area of green (positive) staining based on pixels, with and without background subtraction.
Higher values reflect more intensive green staining which corresponds to more aged cells.
Group#9 contained complete EMEM medium with glycyrrhizic acid 0.25 mM.
Group#10 contained complete EMEM medium only and was used as a control.
FIGS. 6-15 show pictures of the staining results for each of the groups, respectively.

[3] = lithium carbonate 15 or 0.15 μM as in the label, Ga = glycyrrhizic acid 0.25 mM
[4] = lithium carbonate 15 or 0.15 μM as in the label, Ga = glycyrrhizic acid 0.25 mM, listed as Li0.15 uM
[5] = lithium carbonate 15 or 0.15 μM as in the label, Ga = glycyrrhizic acid 0.25 mM, listed as Li15 uM

CC1(C)[C@@H](O[C@H]2O[C@H](C(=O)O)[C@@H](O)[C@H](O)[C@H]2O[C@@H]2O[C@H](C(=O)O)[C@@H](O)[C@H](O)[C@H]2O)CC[C@]2(C)[C@H]3C(=O)C=C4[C@@H]5C[C@@](C)(C(=O)O)CC[C@]5(C)CC[C@@]4(C)[C@]3(C)CC[C@@H]12 [glycyrrhizic acid, (3β,20β)-20-carboxy-11-oxo-30-norolean-12-en-3-yl 2-O-β-D-glucopyranuronosyl-α-D-glucopyranosiduronic acid]
Age in days at 100% mortality [1, 3]: 20 days | longevity effect [1]: not observed | effect on beta-galactosidase staining in comparison with non-treated controls [2]: did not appear to have significant effect | visible positive beta-galactosidase staining (FIGS. 1-4) [2]: stained positively

O=C([O-])[O-].[Li+].[Li+] [lithium carbonate]
Age in days at 50% mortality [1, 3]: 15 days | Age in days at 75% mortality [1, 3]: 16 days | Age in days at 90% mortality [1, 3]: 18 days | Age in days at 100% mortality [1, 3]: 19 days | Restricted mean Days (survival) [1, 4]: 14.88 days | Restricted mean Days (survival) [1, 5]: 14.56 days | Age in days at 25% mortality [1, 4]: 13 days | Age in days at 25% mortality [1, 5]: 14 days | longevity effect [1]: not observed | effect on beta-galactosidase staining in comparison with non-treated controls [2]: did not appear to have significant effect | visible positive beta-galactosidase staining (FIGS. 1-4) [2]: stained positively
